Assay results: patent EP4473972A1, “COMBINATIONS COMPRISING AN ATR INHIBITOR WITH SYNERGISTIC EFFECT AGAINST GLIOMAS” (Eberhard-Karls-Universität Tübingen, priority 2023, dated 2024)

Key:
[1] = test system: GL261 cells; experiment: Cell cycle analysis (propidium iodide flow cytometry); type: cell-based, murine; conditions: 72 h
Experimental: (§1) The inventors seeded the cells on day one and treated them on the next day. After 72 h, they detached the cells and stained them with propidium iodide solution (50 µg/mL propidium iodide (Thermo Fisher Scientific, Waltham, MA, US), 0.2% Triton X-100 (Roth, Karlsruhe, Germany), 100 µg RNase (Thermo Fisher Scientific, Waltham, MA, US), 1 g/L glucose in PBS (phosphate buffered saline) (Gibco, Carlsbad, CA, US). Flow cytometry was done using a MACSQuant Analyzer 10 (Miltenyi Biotec, Bergisch Gladbach, Germany). The inventors analyzed the acquired data with the FlowJo software (Beckton, Dickinson & Company, Franklin Lakes, NJ, US).

[2] = test system: patient-derived glioblastoma microtumor models (PDM); experiment: Patient derived microtumors (PDM) viability, RealTime-Glo MT Cell Viability Assay; type: cell-based; conditions: patient-derived microtumors (PDMs), 72 h
Experimental: PDMs were extracted from surgically resected, residual glioblastoma tissue as is known to the skilled person. The inventors treated the PDMs with indicated drug concentrations for 72 h and determined cell viability using RealTime-Glo MT Cell Viability Assay (Promega, Madison, Wl, US). Luminescence assay signal was measured using a multimode microplate reader (Tecan, Männedorf, Switzerland). Obtained luminescence units were background corrected and plotted as dose response curves using GraphPad Prism 9 software. The use of residual tissue after tumor resections was approved by the ethical board of the University Hospital Tübingen.

[3] = test system: LNZ308 cells; experiment: DigiWest Multiplex Protein Analysis; type: cell-based, human; conditions: LNZ308, 72 h
Experimental: (§2) After 72 h of AZD6738 treatment, the inventors detached and counted the cells and subsequently snap froze them in liquid nitrogen. For protein preparation, they kept the cells on ice and added 20-30 µL of lysis buffer (LDS Lysis Buffer (Life Technologies, Carlsbad, CA, USA), supplemented with reducing agent (Thermo Fisher Scientific, Waltham, MA, USA) and protease- (Roche Diagnostics GmbH, Mannheim, Germany) and phosphatase-inhibitor (Roche)). Proteins were denatured by heating to 95°C for 10 min before the lysates were transferred to QiaShredder Eppendorf tubes (Eppendorf, Hamburg, Germany). After centrifugation (16,000g, 5 min, RT), eluates were stored at -80°C until further use. Protein quantification was performed using in-gel staining. 1 µL of each original lysate was diluted 1:10 (v/v) in lysis buffer. The respective aliquots were denatured for 10 mins at 70°C and 10 µL were run in a NuPAGE 4-12% Bis-Tris precast gel (Thermo Fisher Scientific) according to the manufacturer's instructions. The gel was washed with water and proteins were stained with BlueBandit (VWR, Darmstadt, Germany) for 1 h. The gel was de-stained over night with ddH2O before detection on a LI-COR (LI-COR, Bad Homburg, Germany) instrument. Analysis and protein quantification was performed using ImageStudio.
(§3) The DigiWest analysis was performed as described in the art. In brief, the inventors loaded 10 µg of cellular protein on an SDS-polyacrylamide gel and size-separated them using the commercial NuPAGE system (Life Technologies). Size-separated proteins were blotted onto a PVDF membrane and biotinylated on the membrane using NHS-PEG12-Biotin (50 µM) in PBST for 1 h. After drying of the membrane, the samples lanes were cut into 96 strips of 0.5 mm width using an automated cutting plotter (Silhouette America, West Orem, UT, USA) each corresponding to a defined molecular weight fraction. Each of the strips was placed in one well of a 96-well plate and 10 µl elution buffer (8 M urea, 1% Triton-X100 in 100 mM Tris-HCl pH 9.5) was added. The eluted proteins were diluted with 90 µl of dilution buffer (5% BSA in PBS, 0.02% sodium azide, 0.05% Tween-20) and each of the protein fractions was incubated with 1 distinct magnetic color-coded bead population (Luminex, Austin, USA) coated with neutravidin. The biotinylated proteins bind to the neutravidin beads such that each bead color represents proteins of one specific molecular weight fraction. All 96 protein loaded bead populations were mixed resulting in reconstitution of the original lane. Such a beadmix was sufficient for about 150 individual antibody incubations. Aliquots of the DigiWest bead-mixes (about 1/200th per well) were added to 96 well plates containing 50 µl assay buffer (Blocking Reagent for ELISA (Roche, Rotkreuz, Switzerland) supplemented with 0.2% milk powder, 0.05% Tween-20 and 0.02% sodium azide) and different diluted antibodies were added to the wells. After overnight incubation at 15°C in a shaker, the bead-mixes were washed twice with PBST and species-specific PE-labelled (Phycoerythrin) secondary antibodies (Dianova, Hamburg, Germany) were added and incubated for 1 hour at 23°C. Beads were washed twice prior to readout on a Luminex FlexMAP 3D.
(§4) For quantification of the antibody specific signals, we used the DigiWest Analyzer software; it automatically identifies peaks of appropriate molecular weight and calculates the peak area. Signal intensity was normalized to the total amount of protein loaded onto one lane. The software package MEV 4.9.0 was used for statistical analysis along with Graph Pad Prism (Version 9.0.0). For all statistical tests, a p-value <0.05 was considered significant.

[4] = test system: LN229 cells; experiment: DigiWest Multiplex Protein Analysis; type: cell-based, human; conditions: LN229, 72 h
Experimental: as §2, §3, §4

[5] = test system: LNZ308 cells; experiment: Cell cycle analysis (propidium iodide flow cytometry); type: cell-based, human; conditions: LNZ308, 72 h
Experimental: as §1

[6] = test system: LN229 cells; experiment: as above; type: cell-based, human; conditions: LN229, 72 h
Experimental: as §1

[7] = test system: LNZ308 cells; experiment: RNA-Sequencing (RNAseq); type: cell-based, human
Experimental: (§5) For this, the inventors seeded the cells on day one and treated them on the next day with IC50 concentrations of AZD6738 for up to 72 h. They extracted the RNA using the Qiagen RNeasy Mini kit (Qiagen, Venlo, NL) according to manufacturer's protocol. For RNA sequencing, the inventors enriched the mRNA fraction using polyA capture from 200 ng of total RNA using the NEBNext Poly(A) mRNA Magnetic Isolation Module (NEB). They used the NEB Next Ultra II Directional RNA Library Prep Kit for Illumina (NEB) to prepare mRNA libraries according to manufacturer's instructions. The libraries were sequenced as paired-end 50 bp reads on an Illumina NovaSeq6000 (Illumina) with a sequencing depth of approximately 25 million clusters per sample. The inventors performed RNA raw data QC and processing using megSAP (version 0.2-135-gd002274) combined with ngs-bits package (version 2019_11-42-gflb98e63). To align the reads to the GRCh38 they used STAR v2.7.3a and alignment quality was analyzed using ngs-bits. Normalized read counts for all genes were obtained using Subread (v2.0.0) and edgeR (v3.26.6). The inventors used the R package "DESeq2" for further analyses. They defined differentially expressed genes (DEGs) as log2 fold-change (LFC) above or below |1| and p-adjusted < 0.01 as defined by Wald statistics. The inventors analyzed the resulting hits for KEGG pathway association using gProfiler. […] They re-aligned significant LRT genes with DEG results and analyzed them with gProfiler.

[8] = test system: LN229 cells; experiment: RNA-Sequencing (RNAseq); type: cell-based, human
Experimental: as §5

C[C@@H]1COCCN1c1cc(C2([S@](C)(=N)=O)CC2)nc(-c2cc[nH]c3nccc2-3)n1 [AZD6738, ceralasertib]
cell cycle alterations [1]: accumulation in S phase
cell viability [2]: dose-dependent reduction
p16 [3]: accumulation
pCDK2 (Thr160) protein levels [3]: reduced
CDC25C and pHistH3 (Ser10) [4]: downregulated
Survivin (BIRC5) [4]: upregulated
p53, p21 and Bax [4]: upregulation
pAkt [4]: downregulation
cell cycle alterations [5]: accumulation of LNZ308 cells in G2-M phase
cell cycle alterations [6]: accumulation in S phase
PI3K-Akt signaling (KEGG pathway) [7]: upregulated
PI3K-Akt signaling (KEGG pathway) [8]: downregulated
p53 signaling (KEGG pathway) [8]: strongly upregulated
